In US7256209B2, “Pyrazole derivatives and diabetic medicine containing them” (Ajinomoto Co., Inc., priority 2000, dated 2007):

Legend:
[1] = test system: male Wistar rats; assay: Activity on rat's sugar urine excretion; type: in vivo; conditions: for The amount of excreted glucose in urine: urine collected 24 hours, per day and individual
[2] = test system: male Wistar rats; assay: Activity on rat's sugar urine excretion; type: in vivo; conditions: for The amount of excreted glucose in urine: 100 mg/kg oral, urine collected 24 hours, per day and individual; for activity on urinary glucose excretion as compared to Example 35 of WO01/16147 (in words): compared to Referential Example 1, Table 2; for activity on urinary glucose excretion (in words): oral administration, rat
Experimental: 5-week old male Wistar rats (purchased from Charles River Japan, Inc.) were used in the experiment after they were housed in a metabolic cage for about one week in advance. The test compounds were suspended in olive oil and 20 mg/ml solution was prepared so that the dosage given per 1 kg of the weight of the rats was 5 ml.
After the rats were not fed for 4 hours, the test compounds were orally administered to them at 11 a.m. Their urine was collected, from that taken just after the administration to that taken 24 hours after the administration and its volume was measured. Then, the concentration of glucose in urine was measured by glucose oxidase method and urinary glucose excreted per a day and an individual was calculated.

[3] = test system: Renal brush border membrane glucose uptake; assay: Inhibiting activity on renal brush border membrane glucose uptake; type: biochemical; conditions: rat renal brush border membrane, sodium-dependent 14C-D-glucose uptake
Experimental: The test compound was dissolved in 100 mM Mannitol-10 mM HEPES/Tris (pH 7.4) and solutions having various concentrations were prepared.
Renal brush border membrane was prepared from a rat kidney and the solutions of the test compounds were added thereto and the product was incubated at 37° C. for 30 minutes. Then ^14C-D-glucose was added and the mixture was incubated for 1 minute. After tie reaction of glucose uptake was stopped by a solution containing 1 mM of phloridzin, the activity of ^14C-D-glucose on ^14C was measured by a liquid scintillation counter. The intensity of inhibition was calculated by subtracting the amount of taken glucose that is independent on sodium from the amount of taken glucose of the object samples.

Row | SMILES | The amount of excreted glucose in urine [2] | activity on urinary glucose excretion as compared to Example 35 of WO01/16147 (in words) [2] | activity on urinary glucose excretion (in words) [2] | further results
1 | CCc1ccc(Cc2c(O[C@@H]3O[C@H](COC(=O)OC)[C@@H](O)[C@H](O)[C@H]3O)nn(C(C)C)c2C)cc1 [Example Compound 16, 4′-[(4-ethylphenyl)methyl]-1′-isopropyl-5′-methyl-1H-pyrazole-3′-O-(6-carbomethoxy)-β-D-glucopyranoside] | 598 mg | much higher activity | particularly high activity | The amount of excreted glucose in urine ([1]; 3 mg/kg oral): 28 mg; The amount of excreted glucose in urine ([1]; 10 mg/kg oral): 263 mg; The amount of excreted glucose in urine ([1]; 30 mg/kg oral): 294 mg; activity on urinary glucose excretion (in words) ([1]; orally administered in lower doses such as 30 mg/kg or lower): still has high activity
2 | Cc1[nH]nc(O[C@@H]2O[C@H](CO)[C@@H](O)[C@H](O)[C@H]2O)c1Cc1ccc(OC(C)C)cc1 [Referential Example Compound 1, 4-[(4-isopropoxyphenyl)methyl]-5-methyl-1H-pyrazole-3-O-β-D-glucopyranoside, reference compound] | 14 mg |  |  | 
3 | CSc1ccc(Cc2c(O[C@@H]3O[C@H](CO)[C@@H](O)[C@H](O)[C@H]3O)n[nH]c2C(F)(F)F)cc1 [Example Compound 1, 4-((4-methylthiophenyl)methyl)-5-(trifluoromethyl)-1H-pyrazole-3-O-β-D-glucopyranoside] |  |  |  | Inhibition intensity (concentration of the test compounds) ([3]; 10 μM test compound): 84% (10 μM)
4 | CCc1ccc(Cc2c(O[C@@H]3O[C@H](C(=O)O)[C@@H](O)[C@H](O)[C@H]3O)n[nH]c2C(F)(F)F)cc1 [Example Compound 2, 4-((4-ethylphenyl)methyl)-5-(trifluoromethyl)-1H-pyrazole-3-yl-O-β-D-glucopyranoside uronic acid] |  |  |  | Inhibition intensity (concentration of the test compounds) ([3]; 100 μM test compound): 30% (100 μM)
5 | CCc1ccc(Cc2c(O[C@@H]3O[C@H](COC(=O)OC)[C@@H](O)[C@H](O)[C@H]3O)nn(Cc3ccccc3)c2C(F)(F)F)cc1 [Example Compound 4, 4′-[(4′-ethylphenyl)methyl]-1′-benzyl-5′-trifluoromethyl-1H-pyrazole-3′-O-(6-carbomethoxy)-β-D-glucopyranoside] | 27 mg |  |  | 
6 | CCc1ccc(Cc2c(O[C@@H]3O[C@H](COC(=O)OC)[C@@H](O)[C@H](O)[C@H]3O)nn(-c3ccccc3)c2C(F)(F)F)cc1 [Example Compound 8, 4′-[(4′-ethylphenyl)methyl]-1′-phenyl-5′-trifluoromethyl-1H-pyrazole-3′-O-(6-carbomethoxy)-β-D-glucopyranoside] | 4.1 mg |  |  | 
7 | COC(=O)OC[C@H]1O[C@@H](Oc2nn(C(C)C)c(C)c2Cc2ccc(OC)c(F)c2)[C@H](O)[C@@H](O)[C@@H]1O [Example Compound 10, 4′-[(3′-fluoro-4′-methoxyphenyl)methyl]-1′-isopropyl-5′-methyl-1H-pyrazole-3′-O-(6-carbomethoxy)-β-D-glucopyranoside] | 734 mg | much higher activity | particularly high activity | 
8 | COC(=O)OC[C@H]1O[C@@H](Oc2nn(C(C)C)c(C)c2Cc2ccc(C)c(F)c2)[C@H](O)[C@@H](O)[C@@H]1O [Example Compound 14, 4′-[(3′-fluoro-4′-methylphenyl)methyl]-1′-isopropyl-5′-methyl-1H-pyrazole-3′-O-(6-carbomethoxy)-β-D-glucopyranoside] | 918 mg | much higher activity | particularly high activity | 
9 | CCc1ccc(Cc2c(O[C@@H]3O[C@H](COC(=O)OC)[C@@H](O)[C@H](O)[C@H]3O)nn(Cc3ccc(OC)cc3)c2C(F)(F)F)cc1 [Example Compound 6, 4′-[(4′-ethylphenyl)methyl]-1′-[(4′-methoxyphenyl)methyl]-5′-trifluoromethyl-1H-pyrazole-3′-O-(6-carbomethoxy)-β-D-glucopyranoside] | 59 mg |  |  | 
